Test [1] deals with T1, IN-CCD/LEDGF-IBD interaction (Human immunodeficiency virus type 1 group M subtype B, UniProt P12497, F1332K).
T1 construct: cloning the integrase region (residues 50 to 202, encoding the catalytic core domain); made in house
In words: HTRF-based CCD-IBD interaction assay. It is filed as binding, HIV-1. Conditions: Table 1. An excerpt:
All HTRF® conjugated monoclonal antibodies were purchased from Cisbio Bioassays.
Background: TR-FRET usually uses a lanthanide donor and a delayed reading to cut background.

The next test concerns the target IN-LEDGF/p75 interaction (Human immunodeficiency virus type 1 group M subtype B, UniProt P12497). The test is described as follows: biochemical. As for the experimental part:
IN-LEDGF HTRF® assay was performed in 384-well low volume black polystyrene plates (Corning) using IN-LEDGF assay buffer (25 mM Tris–HCl pH 7.4, 150 mM NaCl, 2 mM MgCl2, 0.4 M KF, 0.1% Igepal CA-630, 0.1% bovine serum albumin, 1 mM DTT). […] The HTRF ratio was converted to % inhibition and analyzed by fitting a sigmoidal dose–response equation with Hill slope to determine the IC50 of the compound.

The subject of test [2] is VSV-G-pseudotyped NL4-3Δenv-luc. The test is described as follows: microbe, parasite or virus in culture. It is filed as cell-based, HIV-1.
In test [3] the test system is NL4-3 RT M41L, D67N, T69N, K70R, T215F, K219E. The test is described as follows: Antiviral assay on NRTI-resistant virus. The format is cell-based, HIV-1. Conditions: ratio EC50 resistant virus / wt virus.
Test [4] concerns NL4-3 Integrase G140S, Q148H. In words: Antiviral assay on INSTI-resistant virus. It is filed as cell-based, HIV-1. To be noted: ratio EC50 resistant virus / wt virus.
The next test concerns the target T2, IN NL4-3 wt (Human immunodeficiency virus type 1 group M subtype B, UniProt P12497).
T2 construct: loaded on a Superdex 200 16/600 PG column (for full length IN); made in house
On the set-up: species or system HIV-1. To be noted: pre-incubation with 100 μM compound.

Test [5] concerns VSV-G-pseudotyped HIV-1 Δenv-Luc NL4-3. The test is described as follows: Time-of-addition experiment, single-round infection of MT4 cells. To be noted: 25 μM (saturating). The format is cell-based.
The test system of test [6] is HIV-1 LAV virions produced by HeLa-LAV cells. The test is described as follows: Virions produced by compound-treated HeLa-LAV cells: p24 and infectivity. It is filed as cell-based.
The test system of the next test is HIV-1 NL4-3 wt. The format is cell-based.
For test [7], the system named is NL4-3 IN T174I mutant virus. The format is cell-based, HIV-1.
The target of another test is viral protease (Human immunodeficiency virus type 1 group M subtype B, UniProt P12497). In words: Viral protease inhibition (unpublished data). It is filed as biochemical, HIV-1.
A further test deals with IN-CCD wt (Human immunodeficiency virus type 1 group M subtype B, UniProt P12497, F1332K).

Method for IN NL4-3 wt: SEC was performed with a Superdex 200 10/300 GL column (GE Healthcare) using a flow-rate of 0.4 mL/min in buffer containing 50 mM HEPES, pH 7.5, 1 M NaCl, 7 mM CHAPS, 5 mM MgCl2, 10 mM DTT, 10% glycerol at room temperature. […] Protein elution was monitored at 280 nm.

With `Cc1nc2c(c(-c3ccc4c(c3)CCCO4)c1C(OC(C)(C)C)C(=O)O)CCCC2` (centres unmarked) [Mut101, 2-(tert-butoxy)-2-[4-(3,4-dihydro-2H-1-benzopyran-6-yl)-2-methyl-5,6,7,8-tetrahydroquinolin-3-yl]acetic acid], the IC50 in [1] stood at 230 nM; at IN-LEDGF/p75 interaction (IC50 on IN-LEDGF interaction inhibition, LEDGF competition, increased value, highest LEDGF/p75 competing concentration (range 7.5 nM to 480 nM)), 680 nM; at IN-LEDGF/p75 interaction (IC50 on IN-LEDGF interaction inhibition, LEDGF competition, starting value, lowest LEDGF/p75 competing concentration (range 7.5 nM to 480 nM)), 97 nM; at IN-LEDGF/p75 interaction (IN-LEDGF IC50, Table 1, HTRF, full length proteins), 200 nM. Further, the SR/MR ratio in [2] worked out at 18. For the same molecule, the 50% effective concentration (EC50) in [2] (Human immunodeficiency virus 1, NL43, MT4, read-out: NL4-3 EC50 Single-round) was 9 ± 1.5 µM. Moreover, the “EC50 fold change NRTIs” value in [3] is reported as 1. In addition, the “EC50 fold change INSTIs” value in test [4] stood at 1. Besides, the “Effect on IN wt oligomerization state (SEC)” value on IN NL4-3 wt is listed as “higher IN oligomerization state”. Also, the “Behaviour in time-of-addition experiment” value in test [5] was “behaved as an inhibitor of integration”. Besides, in [6], the “Virucidal effect on free virus released in supernatant” value is “unable to inactivate free virus”. In [6] (compared with Raltegravir, DMSO or Mut063 treatment), the “Amount of p24 produced by treated HeLa-LAV cells” value is on record as “comparable”. For the same molecule, the “Infectivity of virions from treated HeLa-LAV cells” value in test [6] (luciferase assay in TZM cells) was “strong virus infectivity defects”. In addition, the “Infectivity of NL4-3 wt virus produced in presence of compound” value in the test with HIV-1 NL4-3 wt is on record as “inactivated”. In [7], the “Infectivity of NL4-3 IN T174I virus produced in presence of compound” value is “insensitive”. Moreover, the “Inhibition of viral protease” value on viral protease is “does not inhibit viral protease”. The same molecule registered a Kd at IN-CCD wt of 120 nM.

A word on the IC50: it is the concentration that gives 50% inhibition. As a reminder, the EC50 is the concentration needed to bring the measured effect to its halfway point. As usually defined, the Kd is a measure of binding affinity in units of concentration. Lower therefore signals a tighter complex.
